Assay results published in patent EP2951180B1, “2,6,7,8 SUBSTITUTED PURINES AS HDM2 INHIBITORS” (Merck Sharp & Dohme Corp., priority 2013, dated 2014).
Like-named read-outs stand apart in the source and are kept apart here.

Target: T1, HDM2 (Homo sapiens, UniProt Q00987)
T1 construct: Thioredoxin (N); made in house; host or cells: E. coli strain BL21(DE3)Rosetta
Experiment: HDM2 FRET assay (inhibition of binding of FITC labeled p53-pocket peptide to HDM2)
Outline: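 Displacement of FITC-p53 peptide (3 nM) from His-tagged HDM2 (0.5 nM) is measured by Tb-to-fluorescein FRET in PBS, 0.01% BSA, 0.01% Tween-20. IC50 values derive from 10-point curves.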

[1] = 0.5 nM HDM2 (residues 17 to 125), 3nM peptide, two hour incubation at room temperature, read-out: FRET IC50

T1 sequence (Q00987 17-125): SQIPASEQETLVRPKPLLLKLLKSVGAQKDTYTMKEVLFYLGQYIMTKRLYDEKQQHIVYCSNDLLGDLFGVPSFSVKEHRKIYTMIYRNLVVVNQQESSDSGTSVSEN

CCC1=CCC(Cn2c(-c3cc(C(C)C)ccn3)nc3nc(-c4noc(=O)[nH]4)nc(N[C@H](C)C4CCC4)c32)CC1 (stereo partly drawn) [Example 18.7, 3-(6-(((R)-1-cyclobutylethyl)amino)-7-((4-ethylcyclohex-3-en-1-yl)methyl)-8-(4-isopropylpyridin-2-yl)-7H-purin-2-yl)-1,2,4-oxadiazol-5(4H)-one]
IC50 (Table 18, read-out: FRET IC50): 44 nM

C[C@@H](Nc1nc(-c2noc(=O)[nH]2)nc2nc(N3CCOC4CCCC43)n(C[C@H]3CC[C@H](C)CC3)c12)C1CCC1 (single isomer, unassigned) [Example 11.131]
IC50 (Table 11, read-out: FRET IC50): 7.02 nM

C[C@@H](Nc1nc(C(=O)O)nc2nc(N3CCOCC3)n(Cc3ccc(Cl)cc3)c12)C1CC1 [Example 9.9, 7-(4-chlorobenzyl)-6-{[(1R)-1-cyclopropylethyl]amino}-8-morpholin-4-yl-7H-purine-2-carboxylic acid]
IC50 (Table 9, read-out: FRET IC50): 574 nM

Cc1cccc(-c2nc3nc(C(=O)O)nc(NC(C)(C)C4CC4)c3n2Cc2ccc(Cl)cc2)c1 [Example 6.6, 7-(4-chlorobenzyl)-6-[(1-cyclopropyl-1-methylethyl)amino]-8-(3-methylphenyl)-7H-purine-2-carboxylic acid]
IC50 (Table 6, read-out: FRET IC50): 1650 nM

CCCCN(C)c1nc(C(=O)O)nc2nc(-c3cccc(C)c3)n(Cc3ccc(C(F)(F)F)cc3)c12 [Example 6.83, 6-[butyl(methyl)amino]-8-(3-methylphenyl)-7-[4-(trifluoromethyl)benzyl]-7H-purine-2-carboxylic acid]
IC50 (Table 6, read-out: FRET IC50): 834 nM

C[C@H]1CC[C@H](Cn2c(N3CCOC[C@H]3c3ccncc3)nc3nc(-c4noc(=O)[nH]4)nc(-c4cccc(Cl)c4)c32)CC1 [Example 16.96, 3-{6-(3-chlorophenyl)-7-[(trans-4-methylcyclohexyl)methyl]-8-[(3R)-3-pyridin-4-ylmorpholin-4-yl]-7H-purin-2-yl}-1,2,4-oxadiazol-5(4H)-one]
IC50 [1]: 3.29 nM

CC([C@H]1CC[C@H](C)CC1)n1c(N2CCC[C@H]2CF)nc2nc(-c3noc(=O)[nH]3)nc(-c3cncc(Cl)c3)c21 (single isomer, unassigned) [Example 18.46]
IC50 (Table 18, read-out: FRET IC50): 5.49 nM

C[C@H]1CC[C@H](Cn2c(N3CCO[C@@H]4CCC[C@H]43)nc3nc(-c4n[nH]c(=O)o4)nc(-c4cccc(Cl)c4)c32)CC1 [Example 16.84, 5-{6-(3-chlorophenyl)-8-[(4aR,7aR)-hexahydrocyclopenta [b][1,4]oxazin-4(4aH)-yl]-7-[(trans-4-methylcyclohexyl)methyl]-7H-purin-2-yl}-1,3,4-oxadiazol-2(3H)-one]
IC50 [1]: 2.47 nM

CCN(C)c1nc2nc(-c3noc(=O)[nH]3)nc(N[C@H](C)C3CCC3)c2n1C[C@H]1CC[C@H](C)CC1 [Example 11.115, 3-(6-{[(1R)-1-cyclobutylethyl]amino}-8-[ethyl(methyl)amino]-7-[(trans-4-methylcyclohexyl)methyl]-7H-purin-2-yl)-1,2,4-oxadiazol-5(2H)-one]
IC50 (Table 11, read-out: FRET IC50): 8.13 nM

C[C@@H](Nc1nc(-c2noc(=O)[nH]2)nc2nc(N3CCC[C@H]3c3nnnn3C)n(C[C@H]3CC[C@H](C)CC3)c12)C1CCC1 [Example 11.110, 3-(6-{[(1R)-1-cyclobutylethyl]amino}-7-[(trans-4-methylcyclohexyl)methyl]-8-[(2S)-2-(1-methyl-1H-tetrazol-5-yl)pyrrolidin-1-yl]-7H-purin-2-yl)-1,2,4-oxadiazol-5(2H)-one]
IC50 (Table 11, read-out: FRET IC50): 6.76 nM

C[C@@H](Nc1nc(-c2noc(=O)[nH]2)nc2nc(N3CCC[C@H]3CF)n(C[C@H]3CC[C@H](C)CC3)c12)C1CCC1 [Example 11.8, 3-(6-{[(1R)-1-cyclobutylethyl]amino}-8-[(2S)-2-(fluoromethyl)pyrrolidin-1-yl]-7-[(trans-4-methylcyclohexyl)methyl]-7H-purin-2-yl)-1,2,4-oxadiazol-5(4H)-one]
IC50 (Table 11, read-out: FRET IC50): 2.36 nM

C[C@@H](Nc1nc(-c2noc(=O)[nH]2)nc2nc(C3(c4ccncc4)CC3)n(C[C@H]3CC[C@H](C)CC3)c12)C1CCC1 [Example 22.53, 3-[6-{[(1R)-1-cyclobutylethyl]amino}-7-[(trans-4-methylcyclohexyl)methyl] -8-(1-pyridin-4-ylcyclopropyl)-7H-purin-2-yl]-1,2,4-oxadiazol-5(4H)-one]
IC50 (Table 22, read-out: FRET IC50): 4.6 nM

Cc1cccc(-c2nc3nc(C(=O)O)nc(N[C@H](CCCO)C4CCC4)c3n2Cc2ccc(Cl)cc2)c1 [Example 7.1, 7-(4-chlorobenzyl)-6-{[(1R)-1-cyclobutyl-4-hydroxybutyl]amino}-8-(3-methylphenyl)-7H-purine-2-carboxylic acid]
IC50 (Table 7, read-out: FRET IC50): 105 nM

Cc1cccc(-c2nc3nc(C(=O)O)nc(OCC4CCC4)c3n2Cc2ccc(C(F)(F)F)cc2)c1 [Example 17.3, 6-(cyclobutylmethoxy)-8-(3-methylphenyl)-7-[4-(trifluoromethyl)benzyl]-7H-purine-2-carboxylic acid]
IC50 [1]: 192 nM

C[C@@H](Nc1nc(C(=O)O)nc2nc(N3C4CCC3COC4)n(Cc3ccc(C(F)(F)F)cc3)c12)C1CCC1 [Example 9.76, 6-{[(1R)-1-cyclobutylethyl]amino}-8-(3-oxa-8-azabicyclo[3.2.1]oct-8-yl)-7-[4-(trifluoromethyl)benzyl]-7H-purine-2-carboxylic acid]
IC50 (FRET IC50): 15.9 nM

C[C@@H](Nc1nc(-c2noc(=O)[nH]2)nc2nc(C(C)(O)c3ccccc3)n(C[C@H]3CC[C@H](C)CC3)c12)C1CCC1 (single isomer, unassigned) [Example 22.23]
IC50 (Table 22, read-out: FRET IC50): 6.38 nM

C[C@H]1CC[C@H](Cn2c(N3CCOC[C@H]3c3ccccc3)nc3nc(-c4noc(=O)[nH]4)nc(-n4cc(Cl)ccc4=O)c32)CC1 [Example 25.1, 5-chloro-1-{7-[(trans-4-methylcyclohexyl)methyl]-2-(5-oxo-4,5-dihydro-1,2,4-oxadiazol-3-yl)-8-[(3R)-3-phenylmorpholin-4-yl]-7H-purin-6-yl}pyridin-2(1H)-one]
IC50 (Table 25, read-out: FRET IC50): 1.01 nM

C[C@H]1CC[C@H](Cn2c(N3CCOC[C@H]3c3ccccc3)nc3nc(-c4noc(=O)[nH]4)nc(-c4cc(Cl)cc(Cl)c4)c32)CC1 [Example 16.19, 3-{6-(3,5-dichlorophenyl)-7-[(trans-4-methylcyclohexyl)methyl]-8-[(3R)-3-phenylmorpholin-4-yl]-7H-purin-2-yl}-1,2,4-oxadiazol-5(4H)-one]
IC50 [1]: 0.995 nM

C[C@@H](Nc1nc(-c2noc(=O)[nH]2)nc2nc(N3CCCCC3c3nccn3C)n(Cc3ccc(C(F)(F)F)cc3)c12)C1CCC1 (stereo partly drawn) [Example 9.106, 3-(6-{[(1R)-1-cyclobutylethyl]amino}-8-[2-(1-methyl-1H-imidazol-2-yl)piperidin-1-yl]-7-[4-(trifluoromethyl)benzyl]-7H-purin-2-yl)-1,2,4-oxadiazol-5(4H)-one]
IC50 (Table 9, read-out: FRET IC50): 11.5 nM

C[C@@H](Nc1nc(C(=O)O)nc2nc(N3CCCC3c3ccccc3)n(Cc3ccc(C(F)(F)F)cc3)c12)C1CCC1 (single isomer, unassigned) [Example 9.65]
IC50 (Table 9, read-out: FRET IC50): 11.4 nM

CC(C)C1CCCN1c1nc2nc(-c3noc(=O)[nH]3)nc(N[C@H](C)C3CCC3)c2n1C[C@H]1CC[C@H](C)CC1 (stereo partly drawn) [Example 11.46, 3-(6-{[(1R)-1-cyclobutylethyl]amino}-7-[(trans-4-methylcyclohexyl)methyl]-8-[2-(1-methylethyl)pyrrolidin-1-yl]-7H-purin-2-yl)-1,2,4-oxadiazol-5(2H)-one]
IC50 (Table 11, read-out: FRET IC50): 4.46 nM
